Changes are numbered by the printed parent chain. Where no end group is shown, it is not given here.
Columns and labels:
[1] = molecular target: T1, human ASIC3 (Homo sapiens, UniProt Q9UHC3); test: cell-based
T1 construct: CHO cells stably expressing human ASIC3 (NM_004769.1)
T1 sequence (Q9UHC3 1-531): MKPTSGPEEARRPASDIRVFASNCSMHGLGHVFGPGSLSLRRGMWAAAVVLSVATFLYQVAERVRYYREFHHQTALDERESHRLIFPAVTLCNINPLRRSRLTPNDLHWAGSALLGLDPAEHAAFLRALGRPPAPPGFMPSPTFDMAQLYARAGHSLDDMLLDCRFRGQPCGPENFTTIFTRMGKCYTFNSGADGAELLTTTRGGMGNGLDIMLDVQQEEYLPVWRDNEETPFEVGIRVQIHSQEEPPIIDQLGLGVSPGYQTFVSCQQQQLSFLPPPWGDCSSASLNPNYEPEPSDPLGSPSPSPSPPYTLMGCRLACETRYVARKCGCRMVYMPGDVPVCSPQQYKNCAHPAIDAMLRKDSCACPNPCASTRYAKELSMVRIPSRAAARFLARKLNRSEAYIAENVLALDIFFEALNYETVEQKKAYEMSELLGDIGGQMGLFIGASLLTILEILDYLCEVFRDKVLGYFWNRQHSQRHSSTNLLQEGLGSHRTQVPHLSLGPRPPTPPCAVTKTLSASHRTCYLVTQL

[2] = molecular target: T2, ASIC3 E378Q (Homo sapiens, UniProt Q9UHC3, E378Q); test: MPC peptide activity on ASIC3 E378Q mutant; assay type: cell-based; conditions: read-out: EC50 (95% CI)
T2 construct: human ASIC3 (NM_004769.4); P2A-mCherry reporter (C, cleaved yes); expressed in transfected cells; host or cells: CHO cells (85050302, Sigma), transient transfection
T2 sequence (Q9UHC3 1-531 E378Q): T1 sequence (Q9UHC3 1-531) with E378Q
Protocol: (§1) We individually mutated the four glutamates to glutamine to remove their charge but maintain the side chain structure (Fig. 4C). We tested each mutant by incubating HEK cells stably expressing ASIC3 or CHO cells transfected with mutant ASIC3 with 30 µM WRPRFa before a pH 6.3 acid stimulus.
(§2) All mutagenesis was performed at Genscript, and sequences were verified by nanopore sequencing by Plasmidsaurus (Eugene, OR). The numbering of ASIC3 amino acids is based on RefSeq NP_004760.1. Plasmids were transfected into CHO cells using Lipofectamine 3000 (Thermo) according to the manufacturer’s protocol. Cells were used for patch-clamp recordings 24–48 h after transfection.
(§3) CHO and HEK cells were tested in the whole-cell configuration on MPC platforms using an Axopatch 200B amplifier (Axon Instruments, San Jose, CA) and a Digidata 1322A or Digidata 1440A digitizer (Axon) using pClamp 9.2 or 10.7 (Molecular Devices, San Jose, CA), respectively. When testing transfected cells, red fluorescence from the cleaved mCherry reporter was used to identify cells expressing ASIC3, ASIC131, or ASIC313. For cells expressing transfected ASIC1a or ASIC2a, the green signal from the cleaved eGFP reporter was used. All electrophysiology data were analyzed with Clampfit 11.1 (Molecular Devices).

[3] = molecular target: T3, ASIC3 E416Q (Homo sapiens, UniProt Q9UHC3, E416Q); test: MPC peptide activity on ASIC3 E416Q mutant (incl. double mutant cycle); assay type: cell-based; conditions: read-out: EC50 (95% CI)
T3 construct: human ASIC3 (NM_004769.4); P2A-mCherry reporter (C, cleaved yes); expressed in transfected cells; host or cells: CHO cells (85050302, Sigma), transient transfection
T3 sequence (Q9UHC3 1-531 E416Q): T1 sequence (Q9UHC3 1-531) with E416Q
Protocol: as §1, §2, §3

[4] = molecular target: T4, ASIC313 (Homo sapiens, UniProt Q9UHC3); test: MPC WRPRFa concentration-response on concatemer ASIC313; assay type: cell-based; conditions: read-out: lower limit EC50
T4 construct: placing human ASIC1a and human ASIC3 ORFs in tandem; P2A-mCherry reporter (C, cleaved yes); expressed in transfected cells; host or cells: WT CHO cells (85050302, Sigma), transient transfection
T4 sequence (Q9UHC3 1-531) 1: T1 sequence (Q9UHC3 1-531)
T4 sequence (Q9UHC3 1-531) 2: T1 sequence (Q9UHC3 1-531)
Description: For peptide concentration-response curves, Bottom was set to 0 and Top was constrained to ≤ 1 for peptides that approached plateau phase or where I3s/Ipk reached 1. […] For activation- or desensitization-pH curves, Bottom was set to 0 and Top constrained to 1.

[5] = molecular target: T1, human ASIC3; test: pH-dependence of steady-state desensitization (SSD) of ASIC3; assay type: cell-based; conditions: conditioning pH 7.0, 30 µM
Protocol: Lastly, we tested the effect of 30 µM WRPRFa on SSD of ASIC3. First, we sought to determine if, like activation, WRPRFa also changed the pH-dependence of steady-state desensitization for ASIC3. We preconditioned cells at pH 8.0–7.0 for 20 s to elicit SSD, followed immediately by a test pulse to pH 6.3 (Fig. 7F and G) to measure the fraction of channels that were not desensitized. The current evoked by each pH 6.3 test pulse was normalized to the pH 6.3 pulse following pH 8.0 conditioning and plotted against the conditioning pH to determine the pH-dependence of SSD. For untreated cells, the peak current (Ipk) was recorded, and for WRPRFa-treated cells, the current 3 s after the peak (I3s) was used. Untreated channels were completely desensitized at pH 7.0, while the WRPRFa-treated channels reached a plateau at pH 7.0 with about 30% of channels desensitized. […] The 0.11 unit shift is larger than that reported for RPRFa (0.03 unit shift)[30].

Substance: WRPRF-NH2 [WRPRFa]
- EC50 [1]: 6.22 µM
- channels affected ([1]; 100 µM, MPC): ~90%
- EC50 [2]: 9.59 µM
- EC50 [3]: 2.47 µM
- EC50 [4]: ≥ 12.6 µM
- channels desensitized at plateau [5]: about 30%

Source: PMC12738692, “Identification, characterization, and structure-activity relationship of the ASIC3-selective peptide WRPRFa” (Communications Chemistry, 2025)
